These are literature values, as cited in patent US20240398763A1, “ORAL DOSAGE FORM CONTAINING ONCOLOGICAL ACTIVE INGREDIENT” (OWP Pharmaceuticals, Inc., priority 2023, published 2024).

Converted amounts (≈) assume the structure as drawn. Counter-ions that a name gives are not always drawn. Like-named read-outs stand apart in the source and are kept apart here.

Where [1] appears, read: in water / aqueous media, in words.

Consider `C=CC(=O)N1CCN(c2nc(=O)n(-c3c(C)ccnc3C(C)C)c3nc(-c4c(O)cccc4F)c(F)cc23)[C@@H](C)C1` [sotorasib], for which the Solubility (aqueous media, pH 6.8) is 0.03 mg/mL (≈ 0.0535 mM).
On to `CCN(CC)CCNC(=O)c1c(C)[nH]c(/C=C2\C(=O)Nc3ccc(F)cc32)c1C` [sunitinib malate], for which the Solubility entry (aqueous media over the range pH 1.2 to pH 6.8) is “is in excess of 25 mg/mL”.
For `Cn1ncnc1[C@H]1c2n[nH]c(=O)c3cc(F)cc(c23)N[C@@H]1c1ccc(F)cc1` [talazoparib tosylate], the Solubility result under setting [1] was “insoluble in water”.
Turning to `Cn1nnc2c(C(N)=O)ncn2c1=O` [temozolomide], the Solubility (condition not given) was 7 mg/mL (≈ 36.1 mM).
As for `CN1CCC(COc2cnc(-c3cccc(Cn4nc(-c5cccc(C#N)c5)ccc4=O)c3)nc2)CC1` [tepotinib], the Solubility result under setting [1] is “insoluble in water”.
For `N=C1CCCN1Cc1[nH]c(=O)[nH]c(=O)c1Cl` [tipiracil hydrochloride], the Solubility entry under setting [1] is given as “water soluble; water”.
`COc1cc2nccc(Oc3ccc(NC(=O)Nc4cc(C)on4)c(Cl)c3)c2cc1OC` [tivozanib]: the Solubility entry under setting [1] is on record as “insoluble in water”.
On to `CC[C@@]1(O)C(=O)OCc2c1cc1n(c2=O)Cc2cc3c(CN(C)C)c(O)ccc3nc2-1` [topotecan], for which the Solubility result under setting [1] is on record as “water soluble”.
In the case of `CN(C)CCOc1ccc(/C(=C(/CCCl)c2ccccc2)c2ccccc2)cc1` [toremifene citrate], for the setting “at 37° C.”, the Water solubility is 37 °C is 0.63 mg/mL.
On to `CC1=C(/C=C/C(C)=C/C=C/C(C)=C/C(=O)O)C(C)(C)CCC1` [tretinoin], for which the Solubility result under setting [1] is reported as “insoluble in water”.
As for `O=c1[nH]c(=O)n([C@H]2C[C@H](O)[C@@H](CO)O2)cc1C(F)(F)F` [trifluridine], the Solubility entry under setting [1] is “water soluble; water”.
As to `Cc1cc(Nc2ncnc3ccc(NC4=NC(C)(C)CO4)cc23)ccc1Oc1ccn2ncnc2c1` [tucatinib], the Solubility result under setting [1] is listed as “insoluble in water”.
As to `CS(=O)(=O)c1ccc(C(=O)Nc2ccc(Cl)c(-c3ccccn3)c2)c(Cl)c1` [vismodegib], the Solubility (pH 1) is given as 0.99 mg/mL at pH 1 and the Solubility (pH 7) is 0.1 μg/mL at pH 7 and.
